The values that follow come from article PMC10498667 (Chemical Science, 2023).

Data set [1] deals with human neuroblastoma 5Y cells. Briefly: MTT cytotoxicity assay. The format is cell-based. Conditions: at up to 100 μM; 24 h; 5Y cells; relative to DMSO. Here is the method: Flavonoid 6 was synthesized following previously reported procedures with modifications.[66–68] […] It should be noted that cell viability was calculated, relative to that of the cells containing an equivalent amount of DMSO.
Cell viability was determined by the MTT assay [MTT = 3-(4,5-dimethylthiazol-2-yl)-2,5-diphenyltetrazolium bromide]. Cells were seeded in a 96-well plate (15,000 cells/100 µL) and treated with the samples {[flavonoid] = 5, 10, 25, 50, and 100 µM (1% v/v DMSO)}. After 24 h incubation, 5Y cells were washed with phosphate buffered saline (PBS; GIBCO). MTT [5 mg/mL in PBS (pH 7.4, GIBCO); 25 µL] was added to each well and the plate was incubated for 4 h at 37 °C. The formazan produced by cells was solubilized using an acidic solution of DMF (pH 4.5, 50% v/v, aq) and sodium dodecyl sulfate (SDS; 20% w/v) overnight at room temperature in the dark. Absorbance was measured at 600 nm by a microplate reader (Molecular Devices). Cell viability, relative to that of the cells containing an equivalent amount of DMSO, was calculated.
The measurements were conducted in triplicate. […]
Background: Tetrazolium dyes change colour on reduction, which living cells bring about.

The target of data set [2] is T1, Aβ40 (Homo sapiens, UniProt P05067).
T1 construct: Ab40 ([…]-; purchased Peptide Institute, Inc. (Osaka, Japan)
T1 sequence (P05067 672-711 limits assumed): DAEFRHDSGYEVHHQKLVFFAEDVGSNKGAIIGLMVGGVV
Briefly: ITC binding of 6 with Aβ40. Here is the method:
Distinct reactivities of 6 with metal-free Aβ and metal–Aβ were supported by various biophysical approaches. […] In the absence of Aβ, an increase or decrease in the absorption of the peaks at ca. 265, 300, 340, and 410 nm was monitored for 24 h (Fig. S18 ^†), which could be resulted from the oxidation of 6 in the presence of O2.[69] These spectral changes were accelerated upon incubation with Aβ, indicative of its impact on the oxidative modification of 6. Such transformation of 6 was also indicated in the presence of Cu(II) or Zn(II) with and without Aβ. To probe the interaction of 6 with Aβ, their binding properties were analyzed by isothermal titration calorimetry (ITC). For the association between 6 and Aβ, we recorded the heat change upon constant titration of the flavonoid into the solution of Aβ, where the dilution heat was also measured to avoid the heat change induced by its addition into the buffered solution. […] Thus, 6 can bind to Aβ with a micromolar binding affinity. […]
ITC. The solutions of Ab and 6 were subjected to degassing under vacuum for 3 min prior to loading into the instrument. […] […] The initial delay and the reference power were 60 s and 10 µcal/s, respectively. Dilution heat of 6 only was also measured under the same experimental conditions.
The ITC thermogram and binding isotherm were shown after the subtraction of the dilution heat.
The binding isotherm after baseline correction was fitted to the one-set-of-sites binding model using the MicroCal Origin software (version 7.0). […]

Data set [3] addresses T2, 15N-labeled Aβ40 (Homo sapiens, UniProt P05067).
T2 construct: AEDVG SNKGA IIGLM VGGVV; purchased rPeptide (Georgia, GA, USA)
Briefly: 2D SOFAST-HMQC NMR with 15N-labeled Aβ40. The data set is classed as binding. To be noted: 15N-Aβ40 33 μM; 6 100 μM; 10 °C.
Description: 2D 1H−15N SOFAST-HMQC NMR Experiments. […] To remove possible preformed aggregates, the lyophilized peptide was then redissolved in diluted NaOH (pH 10) and passed through a filter (0.22 µm). On the other hand, the stock solution of 15N-labeled Ab42 based on the previous report.27 Briefly, uniformly 15N-labeled Ab42 was solubilized in diluted NaOH (pH 10) at a concentration of ~200 µM. The undissolved precipitates of Ab42 were removed by centrifugation at 40,000 rpm for 1 h. The solution of 15N-labeled Ab (33 µM) was prepared with and without 6 (100 µM; 1% v/v DMSO) in 20 mM HEPES, pH 7.4 (10% v/v D2O) for NMR experiments. All spectra were acquired with 180 scans at 10 °C. Dimensions of the spectra were 1,024 (1H) ´ 128 (15N) points. Experimental data were processed with NMRpipe29 and Sparky 3.115.30 The 1H and 15N assignments of 15N-labeled Ab were determined based on the previous results.21,31 The chemical shift perturbation was calculated following the equation (eq 4).32 Note that DdH and DdN represent the alterations in the chemical shifts of 1H and 15N of 15N-labeled Ab, respectively.

T2 sequence (P05067 672-711 limits assumed): as above

In the case of `O=c1c(-c2ccc(O)c(O)c2)coc2cc(O)c(O)c(O)c12` [compound 6, 3-(3,4-dihydroxyphenyl)-5,6,7-trihydroxy-4H-chromen-4-one], the cell survival in data set [1] is reported as greater than 90%. The Kd in data set [2] (one-set-of-sites model, 10 °C, read-out: Binding affinity) was roughly 20.5 µM. Further, in data set [2] (pH 7.4, 10 °C), the TΔS is 5.4 (±0.7) kcal mol^−1, the ΔG is reported as −6.0 (±0.5) kcal mol^−1 and the ΔH was −0.6 (±0.5) kcal mol^−1. For the same compound, the “decrease of overall NMR peak intensity” value in data set [3] is on record as “ca. 10%”.
